Results: patent US20140082772A1, “Herbicide-Tolerant Plants” (priority 2010, published 2014)

Legend:
[1] = system: AHAS-inhibitor tolerant WOSR line; test: Plot pre-emergence crop tolerance (PHYTOX), Example 4, tolerant line; type: in vivo, Brassica napus
Experimental: (§1) Plants of an AHAS-inhibitor tolerant WOSR line and plants of an AHAS-inhibitor susceptible WOSR line are sown side by side in a plot. A pre-emergence treatment of herbicides is applied to the plants by means of fine distributed nozzles. There are four replications of each treatment.
(§2) The evaluation for crop-tolerance is assessed as PHYTOX symptom caused by the chemical compounds carried out using a scale from 0 to 100%, compared to the untreated control plants. Here, 0 means no damage and 100 means complete destruction of the plants.

[2] = system: AHAS-inhibitor susceptible WOSR line; test: Plot pre-emergence crop tolerance (PHYTOX), Example 4, susceptible line; type: in vivo, Brassica napus
Experimental: as §1, §2

[3] = system: first AHAS-inhibitor susceptible WOSR line; test: Greenhouse post-emergence herbicide crop damage, Example 1, susceptible line; type: in vivo, Brassica napus; conditions: post-emergence at GS/BBCH 12, assessed 21-22 DAT
Experimental: (§3) Each pot is planted with two plants, the plants are watered from beneath and fertilized according there requirement. The pots are stored side by side in a greenhouse at 12° C. at the emergence phase. The temperature increases to 15-20° C. three weeks after sowing.
(§4) A post-emergence treatment of herbicides is applied to the plants by means of fine distributed nozzles and a water use rate of 200 L/ha at the growth stage GS/BBCH 12 (2 true leaf stage). The herbicides are tested at different rates. Five cultivar replicates are carried out per rate.
(§5) The evaluation of efficacy is assessed as crop damage caused by the herbicides using a scale from 0 to 100%, compared to the untreated control plants. Here, 0 means no damage and 100 means complete destruction of the plants. The level of efficacy is assessed 21-22 days after treatment (DAT). The efficacy results are presented as ED50 values.

[4] = system: AHAS-inhibitor tolerant WOSR line; test: Greenhouse post-emergence herbicide crop damage, Example 1, tolerant line; type: in vivo, Brassica napus; conditions: post-emergence at GS/BBCH 12, assessed 21-22 DAT
Experimental: as §3, §4, §5

[5] = system: second AHAS-inhibitor susceptible WOSR line; test: Greenhouse post-emergence herbicide crop damage, Example 2, susceptible line; type: in vivo, Brassica napus; conditions: post-emergence at GS/BBCH 10, assessed 19 DAT
Experimental: as §3, with “Plants of an AHAS-inhibitor tolerant WOSR line and plants of a second AHAS-inhibitor susceptible WOSR line are sown in 10 cm pots with a sandy loam. Each” for “Each”
(§6) A post-emergence treatment of herbicides is applied to the plants by means of fine distributed nozzles and a water use rate of 200 L/ha at the growth stage GS/BBCH 10. The herbicides are tested at different rates. Twelve cultivar replicates are carried out per rate.
as §5, with “19” for “21-22”

[6] = system: AHAS-inhibitor tolerant WOSR line; test: Greenhouse post-emergence herbicide crop damage, Example 2, tolerant line; type: in vivo, Brassica napus; conditions: post-emergence at GS/BBCH 10, assessed 19 DAT
Experimental: as §3, with “Plants of an AHAS-inhibitor tolerant WOSR line and plants of a second AHAS-inhibitor susceptible WOSR line are sown in 10 cm pots with a sandy loam. Each” for “Each”
as §6
as §5, with “19” for “21-22”

[7] = system: AHAS-inhibitor tolerant WOSR line; test: Plot post-emergence crop tolerance (PHYTOX), Example 3, WOSR; type: in vivo, Brassica napus; conditions: post-emergence at GS 12/13, 15 DAT, crop GS 14/15, AI rate g/ha: flupyrsulfuron-methyl-sodium 5, thifensulfuron-methyl 15, tritosulfuron 25, tribenuron-methyl 15
Experimental: as §1, with “AHAS-tolerant SOSR” for “AHAS-inhibitor susceptible WOSR”, “post-emergence” for “pre-emergence”, “nozzles at the growth stage GS/BBCH 12/13.” for “nozzles.”
as §2

AHAS-tolerant SOSR line = test: Plot post-emergence crop tolerance (PHYTOX), Example 3, SOSR; type: in vivo, Brassica napus; conditions: post-emergence at GS 12/13, 15 DAT, crop GS 13/14, AI rate g/ha: flupyrsulfuron-methyl-sodium 5, thifensulfuron-methyl 15, tritosulfuron 25, tribenuron-methyl 15
Experimental: as §1, with “AHAS-tolerant SOSR” for “AHAS-inhibitor susceptible WOSR”, “post-emergence” for “pre-emergence”, “nozzles at the growth stage GS/BBCH 12/13.” for “nozzles.”
as §2

[8] = system: spring-type B. napus cultivar, 45A77; conditions: PM-mutant gene-containing spring-type cultivar 45A77; R. Degenhardt et al., Weed Technology 19, 2005, 608; cited from earlier work
[9] = 10 DAT, crop GS 10/11, AI rate g/ha: propoxycarbazone 7, sulfosulfuron 2, flupyrsulfuron-methyl 1.8, amidosulfuron 2.75
[10] = 29 DAT, crop GS 11/13, AI rate g/ha: propoxycarbazone 7, sulfosulfuron 2, flupyrsulfuron-methyl 1.8, amidosulfuron 2.75

Compound	PHYTOX % [1, 9] [%]	PHYTOX % [1, 10] [%]	PHYTOX % [2, 9] [%]	PHYTOX % [2, 10] [%]	ED50 (crop damage, scale 0 to 100% vs untreated control) [3] [g/ai/ha]	ED50 (crop damage, scale 0 to 100% vs untreated control) [4] [g/ai/ha]	ED50 (crop damage, scale 0 to 100% vs untreated control) [5] [g/ai/ha]	ED50 (crop damage, scale 0 to 100% vs untreated control) [6] [g/ai/ha]	PHYTOX % [7] [%]	PHYTOX % (AHAS-tolerant SOSR line) [%]	effect of application on the crop [8]
COc1cc(OC)nc(NC(=O)NS(=O)(=O)N(C)S(C)(=O)=O)n1 [Amidosulfuron]	0	0	100	100							
COc1nc(C)nc(NC(=O)NS(=O)(=O)c2ccccc2Cl)n1 [Chlorsulfuron]					0.42	2.8	0.04	11.2			
COc1ncc(F)c2nc(S(=O)(=O)Nc3c(F)cccc3F)nn12 [Florasulam]					1.51	6.53	0.28	4.9			
COC(=O)c1ccc(C(F)(F)F)nc1S(=O)(=O)NC(=O)Nc1nc(OC)cc(OC)n1 [Flupyrsulfuron-methyl-sodium]					0.58	63316.17	0.79	147.97	11	19	
COC(=O)c1ccc(C(F)(F)F)nc1S(=O)(=O)NC(=O)Nc1nc(OC)cc(OC)n1 [Flupyrsulfuron-methyl]	0	0	100	100							
COC(=O)c1ccccc1S(=O)(=O)NC(=O)Nc1nc(C)nc(OC)n1 [Metsulfuron-methyl]					0.57	5.06	0.17	2.28			
CCCOc1nn(C(=O)[N-]S(=O)(=O)c2ccccc2C(=O)OC)c(=O)n1C.[Na+] [Propoxycarbazone-sodium]					2.16	67.43	0.17	42.07			
CCCOc1nn(C(=O)[N-]S(=O)(=O)c2ccccc2C(=O)OC)c(=O)n1C.[Na+] [Propoxycarbazone]	0	0	100	100							
CCS(=O)(=O)c1nc2ccccn2c1S(=O)(=O)NC(=O)Nc1nc(OC)cc(OC)n1 [Sulfosulfuron]	0	0	99	99	1.70	2417.06	0.01	3.29			
COC(=O)c1sccc1S(=O)(=O)NC(=O)Nc1nc(C)nc(OC)n1 [Thifensulfuron-methyl]									13	23	
COC(=O)c1ccccc1S(=O)(=O)NC(=O)N(C)c1nc(C)nc(OC)n1 [Tribenuron-methyl]					2.59	25.88	0.11	9.11	17	25	
COc1nc(NC(=O)NS(=O)(=O)c2ccccc2C(F)(F)F)nc(C(F)(F)F)n1 [Tritosulfuron]					0.39	42.30	1.76	2.96	43	53	
COc1nc(C)nc(NC(=O)NS(=O)(=O)c2ccsc2C(=O)O)n1 [thifensulfuron]											reduced canola biomass, herbicide injury symptoms, or delayed maturity
Trisulfuron-methyl [Trisulfuron-methyl 500]					3.36	41.81	0.03	4.48			
